{"source": "patent US10696686B2", "about": "“Herbicidally active (alkynyl-phenyl)-substituted cyclic dione compounds and derivatives thereof” (Syngenta Limited, priority 2013, dated 2020)", "experiment_in_all_cases": "Biological Example 3 glasshouse assay using various adjuvant systems, post-emergence foliar spray", "type_in_all_cases": "in vivo", "key": {"Setaria faberi (SETFA)": {"system": "Setaria faberi (SETFA)", "conditions": "8 g/ha, 14 DAA (A11: 14 or 15 DAA), adjuvant 0.5% v/v Adigor + 1.0% v/v AMS + 12.5% v/v IPA", "procedure": "(§1) Post-emergence foliar spray application, 200 L/ha, usually one or two replicates for the weeds (depending on application rate), and two replicates for soybean.\n(§2) Standard warm conditions (tropical), in glasshouse. Specifically, the glasshouse bay conditions are 24° C./18° C. day/night; 16/8 hours light/dark; 65% humidity.\n(§3) The herbicidal application takes place at the following growth stages for plants which include inter alia one or more of the following plants (usually the herbicidal application takes place on at least the following plants: DIGSA, ELEIN, SETFA, ZEAMX, GLXMA Nikko, and GLXMA TMG133, and often also either BRADC or BRAPP):\nSetaria faberi (SETFA)—growth stage 12 or 13\n(§4) Each test compound is applied with one of the following adjuvant systems (all percentages are final concentrations in the aqueous spray mixture):\n(§5) Adjuvant system 1: 0.5% v/v Adigor™ *, 1.0% v/v AMS (ammonium sulphate) and 12.5% v/v IPA (isopropyl alcohol).\n(§6) Adjuvant system 1A: 0.5% v/v Adigor™ * and 12.5% v/v IPA (isopropyl alcohol).\n(§7) CAS Registry no. […] A visual assessment of the % herbicidal damage is made 7 and 14 Days After herbicide Application (DAA) (or, in a minority of cases, 7 and 15 DAA), and the results are recorded as % visual herbicidal damage where 0%=no damage to plants and 100%=plant totally killed. *** Adjuvant system=either Adigor™ or Hexamoll DINCH™ or tris-(2-ethylhexyl) phosphate each at 0.5% v/v, and 12.5% v/v IPA (isopropyl alcohol), and 1.0% v/v AMS (ammonium sulphate); or 0.5% v/v Adigor™ and 12.5% v/v IPA (isopropyl alcohol); all percentages are final concentrations in the aqueous spray mixture. […]\n(§8) The percentages of herbicidal damage/plant control, at 14 Days After herbicide Application (DAA) (or, in a minority of cases, at 15 DAA), for the Compounds tested and for some of the plants tested, were in the following percentage ranges. […] Phytotoxicity on Glycine max (GLXMA, Soybean) Cultivar “TMG133” Glycine max (GLXMA, soybean) cultivar “TMG133” is Roundup Ready™ glyphosate-tolerant soybean cultivar TMG133, and is typically available from Monsanto in Brazil."}, "[1]": {"system": "Glycine max (GLXMA, soybean) cultivar Nikko", "conditions": "post-emergence, 14 DAA (A11: 14 or 15 DAA), adjuvant 0.5% v/v Adigor + 1.0% v/v AMS + 12.5% v/v IPA", "procedure": "as §1, §2, §3\nGlycine max (GLXMA, soybean) cultivar “Nikko”—growth stage: 1st trifoliate\nas §4, §5, §6\n(§9) CAS Registry no. 166412-78-8), and is usually available from BASF. “Isononyl” in this context is thought to mean a mixture of two or more branched isomers of C9H19. Method: Seeds of the weed (including volunteer) plants, typically including inter alia Digitaria sanguinalis (DIGSA), Eleusine indica (ELEIN), Setaria faberi (SETFA), Zea mays (ZEAMX, corn), and sometimes also [either Brachiaria decumbens (BRADC) or Brachiaria platyphylla (BRAPP)], are sown in seed trays (troughs) containing clay loam soil (pH 7.0, 2.2% organic matter, “Trough Mix A”); and soybean seed is sown in pots containing the same soil with 3 soybean seedlings per pot. The plants are sprayed with the test herbicide when they reach the growth stages mentioned above. The test herbicidal solutions are prepared by mixing the appropriate aliquots of the test substance(s) and one of the adjuvant systems indicated above *** in deionised water to give the desired treatment concentration. The herbicidal application is made as a foliar spray, using a tracksprayer. Following the herbicidal application, the plants are watered twice per day for the duration of the test. A visual assessment of the % herbicidal damage is made 7 and 14 Days After herbicide Application (DAA) (or, in a minority of cases, 7 and 15 DAA), and the results are recorded as % visual herbicidal damage where 0%=no damage to plants and 100%=plant totally killed. *** Adjuvant system=either Adigor™ or Hexamoll DINCH™ or tris-(2-ethylhexyl) phosphate each at 0.5% v/v, and 12.5% v/v IPA (isopropyl alcohol), and 1.0% v/v AMS (ammonium sulphate); or 0.5% v/v Adigor™ and 12.5% v/v IPA (isopropyl alcohol); all percentages are final concentrations in the aqueous spray mixture.\n(§10) Compounds A8, A11 and A17, which are compounds of formula (I) according to the present invention, were tested in a test method substantially as described above.\n(§11) Compound A8 was tested using the 0.5% v/v Adigor™+12.5% v/v IPA adjuvant system. Compounds A11 and A17 were tested using the 0.5% v/v Adigor™+1.0% v/v AMS+12.5% v/v IPA adjuvant system.\nThe percentages of herbicidal damage/plant control, at 14 Days After herbicide Application (DAA) (or, in a minority of cases, at 15 DAA), for the Compounds tested and for some of the plants tested, were in the following percentage ranges. At least for Compounds A8 and A17, the phytotoxicity results shown herein are the average of 2 repetitions (for the grassy weeds, corn and soybean). […] Control of Zea mays (ZEAMX, Corn), a Warm-Climate (Warm-Season) Grassy Plant Zea mays (ZEAMX, maize, corn) is often present as a “volunteer” weed (“volunteer” corn) in fields where it was planted as a crop in preceding growing season(s) and where the present field crop is not corn. […]"}, "[2]": {"system": "Digitaria sanguinalis (DIGSA)", "conditions": "8 g/ha, 14 DAA (A11: 14 or 15 DAA), adjuvant 0.5% v/v Adigor + 1.0% v/v AMS + 12.5% v/v IPA", "procedure": "as §1, §2, §3\nDigitaria sanguinalis (DIGSA)—growth stage 12 or 13\nas §4, §5, §6, §7\nThe percentages of herbicidal damage/plant control, at 14 Days After herbicide Application (DAA) (or, in a minority of cases, at 15 DAA), for the Compounds tested and for some of the plants tested, were in the following percentage ranges. […] Phytotoxicity on Glycine max (GLXMA, Soybean) Cultivar “TMG133” Glycine max (GLXMA, soybean) cultivar “TMG133” is Roundup Ready™ glyphosate-tolerant soybean cultivar TMG133, and is typically available from Monsanto in Brazil. […]"}, "[3]": {"system": "Glycine max (GLXMA, soybean) cultivar TMG133", "conditions": "14 DAA (A11: 14 or 15 DAA), adjuvant 0.5% v/v Adigor + 1.0% v/v AMS + 12.5% v/v IPA", "procedure": "as §1, §2, §3\nGlycine max (GLXMA, soybean) cultivar “TMG133”—which is Roundup Ready™ glyphosate-tolerant soybean cultivar TMG133 (typically available from Monsanto in Brazil)—growth stage: 1st trifoliate.\nas §4, §5, §6, §9, §10, §11\nThe percentages of herbicidal damage/plant control, at 14 Days After herbicide Application (DAA) (or, in a minority of cases, at 15 DAA), for the Compounds tested and for some of the plants tested, were in the following percentage ranges. […]"}, "[4]": {"system": "Zea mays (ZEAMX, maize, corn) cultivar Garland", "conditions": "8 g/ha, 14 DAA (A11: 14 or 15 DAA), adjuvant 0.5% v/v Adigor + 1.0% v/v AMS + 12.5% v/v IPA", "procedure": "as §1, §2, §3\nZea mays (ZEAMX, maize/corn, e.g. can occur as volunteer corn) cultivar “Garland”—growth stage 12 or 13\nas §4, §5, §6\n(§12) CAS Registry no. 166412-78-8), and is usually available from BASF. “Isononyl” in this context is thought to mean a mixture of two or more branched isomers of C9H19. […] A visual assessment of the % herbicidal damage is made 7 and 14 Days After herbicide Application (DAA) (or, in a minority of cases, 7 and 15 DAA), and the results are recorded as % visual herbicidal damage where 0%=no damage to plants and 100%=plant totally killed. *** Adjuvant system=either Adigor™ or Hexamoll DINCH™ or tris-(2-ethylhexyl) phosphate each at 0.5% v/v, and 12.5% v/v IPA (isopropyl alcohol), and 1.0% v/v AMS (ammonium sulphate); or 0.5% v/v Adigor™ and 12.5% v/v IPA (isopropyl alcohol); all percentages are final concentrations in the aqueous spray mixture. […]"}, "Eleusine indica (ELEIN)": {"system": "Eleusine indica (ELEIN)", "conditions": "8 g/ha, 14 DAA (A11: 14 or 15 DAA), adjuvant 0.5% v/v Adigor + 1.0% v/v AMS + 12.5% v/v IPA", "procedure": "as §1, §2, §3\nEleusine indica (ELEIN)—growth stage 12 or 13\nas §4, §5, §6, §7, §8"}, "[5]": {"system": "Brachiaria decumbens (BRADC)", "conditions": "8 g/ha, 14 DAA (A11: 14 or 15 DAA), adjuvant 0.5% v/v Adigor + 1.0% v/v AMS + 12.5% v/v IPA", "procedure": "as §1, §2, §3\nBrachiaria decumbens (BRADC)—growth stage (GS) 12 or 13 (or GS 12)—or, if BRADC is not used, then usually Brachiaria platyphylla (BRAPP)—growth stage 12 or 13\nas §4, §5, §6, §12"}}, "data": [{"compound": "CC#Cc1cc(F)c(C2C(=O)CCCC2=O)c(OC)c1", "note": "[Compound A17]", "values": [{"measurement": "percentage control of Setaria faberi (SETFA)", "setting": "Setaria faberi (SETFA)", "value": 0, "unit": "%"}, {"measurement": "percentage phytotoxicity on Glycine max (GLXMA, soybean) cultivar Nikko", "setting": "[1]; 120 g/ha", "value": 5, "unit": "%"}, {"measurement": "percentage phytotoxicity on Glycine max (GLXMA, soybean) cultivar Nikko", "setting": "[1]; 240 g/ha", "value": 7.5, "unit": "%"}, {"measurement": "percentage control of Digitaria sanguinalis (DIGSA)", "setting": "[2]", "value": 0, "unit": "%"}, {"measurement": "percentage phytotoxicity on Glycine max (GLXMA, soybean) cultivar TMG133", "setting": "[3]; 120 g/ha", "value": 5, "unit": "%"}, {"measurement": "percentage phytotoxicity on Glycine max (GLXMA, soybean) cultivar TMG133", "setting": "[3]; 240 g/ha", "value": 7.5, "unit": "%"}, {"measurement": "percentage control of Zea mays (ZEAMX, maize, corn)", "setting": "[4]", "value": 0, "unit": "%"}, {"measurement": "percentage control of Eleusine indica (ELEIN)", "setting": "Eleusine indica (ELEIN)", "value": 0, "unit": "%"}, {"measurement": "percentage control of (phytotoxicity on) Brachiaria decumbens (BRADC)", "setting": "[5]", "value": 0, "unit": "%"}]}]}
